Data reported in article PMC5218480 (PLoS ONE, 2017).

Test system: MV-4-11 cells
Assay: Gene expression microarray analysis (Affymetrix PrimeView) and GSEA
Format: cell-based, human
Design: RFU PODN (11730768_x_at) / Fold change /veh PODN (11730768_x_at) / RFU LINC00158 (11744669_a_at) / Fold change /veh LINC00158 (11744669_a_at) / RFU DUSP10 (11751237_a_at) / Fold change /veh DUSP10 (11751237_a_at) / RFU ID3 (11757404_x_at) / Fold change /veh ID3 (11757404_x_at) / RFU PLEKHG5 (11737974_s_at) / Fold change /veh PLEKHG5 (11737974_s_at) / RFU LRRC4B (11730491_at) / Fold change /veh LRRC4B (11730491_at) / RFU GIMAP4 (11747438_a_at) / Fold change /veh GIMAP4 (11747438_a_at) / RFU KRT8 (11758183_x_at) / Fold change /veh KRT8 (11758183_x_at) / RFU CNN1 (11734310_a_at) / Fold change /veh CNN1 (11734310_a_at) / RFU VPS37D (11726825_at) / Fold change /veh VPS37D (11726825_at) / RFU C10orf10 (11716522_x_at) / Fold change /veh C10orf10 (11716522_x_at) / RFU KIR2DL2 /// KIR2DL4 /// KIR2DL5A /// KIR2DL5B /// KIR2DS1 /// KIR2DS2 /// KIR2DS3 /// KIR2DS4 /// KIR3DL3 /// KIR3DL3 /// KIR3DS1 (11738374_at) / Fold change /veh KIR2DL2 /// KIR2DL4 /// KIR2DL5A /// KIR2DL5B /// KIR2DS1 /// KIR2DS2 /// KIR2DS3 /// KIR2DS4 /// KIR3DL3 /// KIR3DL3 /// KIR3DS1 (11738374_at) / RFU C1QL1 (11718748_at) / Fold change /veh C1QL1 (11718748_at) / RFU TMPRSS4 (11747572_a_at) / Fold change /veh TMPRSS4 (11747572_a_at) / RFU HAMP (11756126_x_at) / Fold change /veh HAMP (11756126_x_at) / RFU RNFT2 (11725882_a_at) / Fold change /veh RNFT2 (11725882_a_at) / RFU NR4A2 (11747474_a_at) / Fold change /veh NR4A2 (11747474_a_at) / RFU ABCC12 (11746883_a_at) / Fold change /veh ABCC12 (11746883_a_at) / RFU TMEM136 (11760407_x_at) / Fold change /veh TMEM136 (11760407_x_at) / RFU CLDN22 /// WWC2 (11732394_at) / Fold change /veh CLDN22 /// WWC2 (11732394_at) / RFU HLA-DPB1 (11760878_x_at) / Fold change /veh HLA-DPB1 (11760878_x_at) / RFU SPINT1 (11716480_a_at) / Fold change /veh SPINT1 (11716480_a_at) / RFU GAP43 (11754022_s_at) / Fold change /veh GAP43 (11754022_s_at) / RFU A4GNT (11735810_at) / Fold change /veh A4GNT (11735810_at) / RFU PRB3 (11715151_x_at) / Fold change /veh PRB3 (11715151_x_at) / RFU TUBB4B (11761932_at) / Fold change /veh TUBB4B (11761932_at) / RFU CAPN14 (11732068_a_at) / Fold change /veh CAPN14 (11732068_a_at) / RFU TMCC2 (11721928_a_at) / Fold change /veh TMCC2 (11721928_a_at) / RFU IRGQ (11745062_a_at) / Fold change /veh IRGQ (11745062_a_at) / RFU FAM174B (11720279_a_at) / Fold change /veh FAM174B (11720279_a_at) / RFU TMPRSS4 (11748680_a_at) / Fold change /veh TMPRSS4 (11748680_a_at) / RFU FAM212B (11763350_a_at) / Fold change /veh FAM212B (11763350_a_at) / RFU PLEKHG5 (11743358_a_at) / Fold change /veh PLEKHG5 (11743358_a_at) / RFU ZSCAN30 (11745921_a_at) / Fold change /veh ZSCAN30 (11745921_a_at) / RFU CMKLR1 (11741424_a_at) / Fold change /veh CMKLR1 (11741424_a_at) / RFU LOC101060620 /// MAPK8IP1 (11723275_at) / Fold change /veh LOC101060620 /// MAPK8IP1 (11723275_at) / RFU SPTSSB (11747773_x_at) / Fold change /veh SPTSSB (11747773_x_at) / RFU PRSS12 (11739890_at) / Fold change /veh PRSS12 (11739890_at) / RFU BIN1 (11741810_x_at) / Fold change /veh BIN1 (11741810_x_at) / RFU WNT11 (11732464_a_at) / Fold change /veh WNT11 (11732464_a_at) / RFU C10orf10 (11716521_a_at) / Fold change /veh C10orf10 (11716521_a_at) / RFU C5orf56 (11738089_at) / Fold change /veh C5orf56 (11738089_at) / RFU CYB561 (11721691_x_at) / Fold change /veh CYB561 (11721691_x_at) / RFU ANKRD19P (11752326_a_at) / Fold change /veh ANKRD19P (11752326_a_at) / RFU OR2T12 /// OR2T33 /// OR2T8 (11738714_s_at) / Fold change /veh OR2T12 /// OR2T33 /// OR2T8 (11738714_s_at) / RFU VCAN (11748164_a_at) / Fold change /veh VCAN (11748164_a_at) / RFU JSRP1 (11732532_at) / Fold change /veh JSRP1 (11732532_at) / RFU KRTAP10-11 (11738290_x_at) / Fold change /veh KRTAP10-11 (11738290_x_at) / RFU MYO3A (11730013_a_at) / Fold change /veh MYO3A (11730013_a_at) / RFU EBF3 (11725865_a_at) / Fold change /veh EBF3 (11725865_a_at) / RFU CAMK2N1 (11719241_x_at) / Fold change /veh CAMK2N1 (11719241_x_at) / RFU C5orf56 (11738088_a_at) / Fold change /veh C5orf56 (11738088_a_at) / RFU OLFML3 (11715873_a_at) / Fold change /veh OLFML3 (11715873_a_at) / RFU LOC100653217 /// NTM (11731650_a_at) / Fold change /veh LOC100653217 /// NTM (11731650_a_at) / RFU MAPK11 (11762145_a_at) / Fold change /veh MAPK11 (11762145_a_at) / RFU FIZ1 (11724087_x_at) / Fold change /veh FIZ1 (11724087_x_at) / RFU OASL (11726364_x_at) / Fold change /veh OASL (11726364_x_at) / RFU SOX15 (11748057_x_at) / Fold change /veh SOX15 (11748057_x_at) / RFU CD79A (11719716_a_at) / Fold change /veh CD79A (11719716_a_at) / RFU HIST1H1D (11736915_at) / Fold change /veh HIST1H1D (11736915_at) / RFU CASKIN2 (11723855_a_at) / Fold change /veh CASKIN2 (11723855_a_at) / RFU LOC730098 (11760151_x_at) / Fold change /veh LOC730098 (11760151_x_at) / RFU OR4N2 (11742367_at) / Fold change /veh OR4N2 (11742367_at) / RFU PRRT2 (11749266_a_at) / Fold change /veh PRRT2 (11749266_a_at) / RFU SNX32 (11753110_a_at) / Fold change /veh SNX32 (11753110_a_at) / RFU CDHR5 (11726645_a_at) / Fold change /veh CDHR5 (11726645_a_at) / RFU RCAN1 (11760418_a_at) / Fold change /veh RCAN1 (11760418_a_at) / RFU FAM167A (11723789_a_at) / Fold change /veh FAM167A (11723789_a_at) / RFU FAM26E (11764081_at) / Fold change /veh FAM26E (11764081_at) / RFU ISYNA1 (11749810_s_at) / Fold change /veh ISYNA1 (11749810_s_at) / RFU ACY1 (11761880_at) / Fold change /veh ACY1 (11761880_at) / RFU 11764098_at / Fold change /veh 11764098_at / RFU SAMD14 (11745864_x_at) / Fold change /veh SAMD14 (11745864_x_at) / RFU NPB (11741838_a_at) / Fold change /veh NPB (11741838_a_at) / RFU TMPRSS6 (11731388_a_at) / Fold change /veh TMPRSS6 (11731388_a_at) / RFU KRTAP10-2 (11738614_at) / Fold change /veh KRTAP10-2 (11738614_at) / RFU ARHGAP8 /// PRR5-ARHGAP8 (11727945_x_at) / Fold change /veh ARHGAP8 /// PRR5-ARHGAP8 (11727945_x_at) / RFU KRTAP5-7 /// NADSYN1 (11734609_at) / Fold change /veh KRTAP5-7 /// NADSYN1 (11734609_at) / RFU RASL12 (11751679_a_at) / Fold change /veh RASL12 (11751679_a_at) / RFU CDKN2B (11736163_a_at) / Fold change /veh CDKN2B (11736163_a_at) / RFU PRF1 (11729649_at) / Fold change /veh PRF1 (11729649_at) / RFU, ZNF638 /// ZNF638-IT1 / Fold change vs veh, ZNF638 /// ZNF638-IT1 / RFU, PANK3 / Fold change vs veh, PANK3 / RFU, SH3YL1 / Fold change vs veh, SH3YL1 / RFU, ZEB2 / Fold change vs veh, ZEB2 / RFU, NRIP1 / Fold change vs veh, NRIP1 / RFU, PTTG1IP / Fold change vs veh, PTTG1IP / RFU, CAPN2 / Fold change vs veh, CAPN2 / RFU, MED14 / Fold change vs veh, MED14 / RFU, SNORA58 / Fold change vs veh, SNORA58 / RFU, C1orf63 / Fold change vs veh, C1orf63 / RFU, LRRFIP1 / Fold change vs veh, LRRFIP1 / RFU, NDUFAF7 / Fold change vs veh, NDUFAF7 / RFU, SLC12A2 / Fold change vs veh, SLC12A2 / RFU, IBTK / Fold change vs veh, IBTK / RFU, ESF1 / Fold change vs veh, ESF1 / Fold change vs veh, TMEM50B / RFU, TAOK1 / Fold change vs veh, TAOK1 / RFU, ACBD3 / Fold change vs veh, ACBD3 / RFU, TMA16 / Fold change vs veh, TMA16 / RFU, RWDD3 / Fold change vs veh, RWDD3 / RFU, BCAT1 / Fold change vs veh, BCAT1 / RFU, EDEM3 / Fold change vs veh, EDEM3 / RFU, TMEM33 / Fold change vs veh, TMEM33 / RFU, WDR75 / Fold change vs veh, WDR75 / RFU, AHCTF1 / Fold change vs veh, AHCTF1 / RFU, TFRC / Fold change vs veh, TFRC / RFU, ZDHHC17 / Fold change vs veh, ZDHHC17 / RFU, NOM1 / Fold change vs veh, NOM1 / RFU, ARL8B / Fold change vs veh, ARL8B / RFU, ZBTB11 / Fold change vs veh, ZBTB11 / RFU, TAMM41 / Fold change vs veh, TAMM41 / RFU, KIAA1704 /// LOC100996395 / Fold change vs veh, KIAA1704 /// LOC100996395 / RFU, ING1 / Fold change vs veh, ING1 / RFU, TRMT61B / Fold change vs veh, TRMT61B / RFU, FUBP3 / Fold change vs veh, FUBP3 / RFU, TP53 / Fold change vs veh, TP53 / RFU, TNKS2 / Fold change vs veh, TNKS2 / RFU, ZFP14 / Fold change vs veh, ZFP14 / RFU, ACTR2 / Fold change vs veh, ACTR2 / RFU, PPP3R1 / Fold change vs veh, PPP3R1 / RFU, PIK3R1 / Fold change vs veh, PIK3R1 / RFU, HNRNPA1 / Fold change vs veh, HNRNPA1 / RFU, RNF170 / Fold change vs veh, RNF170 / RFU, ZNF28 / Fold change vs veh, ZNF28 / RFU, RNGTT / Fold change vs veh, RNGTT / RFU, OGT / Fold change vs veh, OGT / RFU, BRD1 / Fold change vs veh, BRD1 / RFU, MARS / Fold change vs veh, MARS / RFU, ZNF655 / Fold change vs veh, ZNF655 / RFU, FAHD1 / Fold change vs veh, FAHD1 / RFU, BDP1 / Fold change vs veh, BDP1 / RFU, LRRCC1 / Fold change vs veh, LRRCC1 / RFU, ARID1A / Fold change vs veh, ARID1A / RFU, ZNF146 / Fold change vs veh, ZNF146 / RFU, ZNF330 / Fold change vs veh, ZNF330 / RFU, GPN3 / Fold change vs veh, GPN3 / RFU, C9orf123 / Fold change vs veh, C9orf123 / RFU, N4BP2L2 / Fold change vs veh, N4BP2L2 / RFU, ARFIP1 / Fold change vs veh, ARFIP1 / RFU, FAM179B / Fold change vs veh, FAM179B / RFU, BCL10 / Fold change vs veh, BCL10 / RFU, UHRF1BP1L / Fold change vs veh, UHRF1BP1L / RFU, BET1 / Fold change vs veh, BET1 / RFU, CNOT2 / Fold change vs veh, CNOT2 / RFU, ZNF268 / Fold change vs veh, ZNF268 / Fold change vs veh, ZNF507 / RFU, DGCR2 / Fold change vs veh, DGCR2 / RFU, WDSUB1 / Fold change vs veh, WDSUB1 / Fold change vs veh, HSP90B1 /// MIR3652 / RFU, ADSS / Fold change vs veh, ADSS / RFU, GK / Fold change vs veh, GK / RFU, ZNF148 / Fold change vs veh, ZNF148 / RFU, TAF9 / Fold change vs veh, TAF9 / RFU, SLC1A5 / Fold change vs veh, SLC1A5 / RFU, SLMO2 / Fold change vs veh, SLMO2 / RFU, ABCC4 / Fold change vs veh, ABCC4 / RFU, LOC101060439 /// RAP1B / Fold change vs veh, LOC101060439 /// RAP1B / RFU, RFX7 / Fold change vs veh, RFX7 / RFU, GTPBP10 / Fold change vs veh, GTPBP10 / RFU, CNEP1R1 / Fold change vs veh, CNEP1R1 / RFU, BIVM-ERCC5 /// ERCC5 / Fold change vs veh, BIVM-ERCC5 /// ERCC5 / RFU, ILF3 / Fold change vs veh, ILF3 / RFU 11762660_at / Fold change /veh 11762660_at / RFU VCAN (11757783_s_at) / Fold change /veh VCAN (11757783_s_at) / RFU DDX43 (11728927_at) / Fold change /veh DDX43 (11728927_at) / RFU KRT8 (11758188_x_at) / Fold change /veh KRT8 (11758188_x_at) / RFU NKD1 (11759106_at) / Fold change /veh NKD1 (11759106_at) / RFU SRD5A1 (11742802_a_at) / Fold change /veh SRD5A1 (11742802_a_at) / RFU TPSAB1 /// TPSB2 (11721975_s_at) / Fold change /veh TPSAB1 /// TPSB2 (11721975_s_at) / RFU GSTM3 (11746129_a_at) / Fold change /veh GSTM3 (11746129_a_at) / RFU IL23R (11737362_x_at) / Fold change /veh IL23R (11737362_x_at) / RFU TMEM51 (11727254_a_at) / Fold change /veh TMEM51 (11727254_a_at) / RFU PIWIL2 (11732686_x_at) / Fold change /veh PIWIL2 (11732686_x_at) / RFU ORM1 (11744905_x_at) / Fold change /veh ORM1 (11744905_x_at) / RFU CCDC152 (11743942_at) / Fold change /veh CCDC152 (11743942_at) / RFU ECM1 (11717891_a_at) / Fold change /veh ECM1 (11717891_a_at) / RFU IL23R (11748794_a_at) / Fold change /veh IL23R (11748794_a_at) / RFU TNFAIP8L3 (11732012_x_at) / Fold change /veh TNFAIP8L3 (11732012_x_at) / RFU MBOAT4 (11741988_at) / Fold change /veh MBOAT4 (11741988_at) / RFU 11764193_at / Fold change /veh 11764193_at / RFU TMEM53 (11763286_at) / Fold change /veh TMEM53 (11763286_at) / RFU MAGEB2 (11727129_at) / Fold change /veh MAGEB2 (11727129_at) / RFU TMEM200A (11744735_a_at) / Fold change /veh TMEM200A (11744735_a_at) / RFU CCDC152 (11751479_a_at) / Fold change /veh CCDC152 (11751479_a_at) / RFU FAM211A (11726209_a_at) / Fold change /veh FAM211A (11726209_a_at) / RFU RGS16 (11746705_a_at) / Fold change /veh RGS16 (11746705_a_at) / RFU VCAN (11755009_s_at) / Fold change /veh VCAN (11755009_s_at) / RFU RHOB (11743442_s_at) / Fold change /veh RHOB (11743442_s_at) / RFU RGS16 (11720943_a_at) / Fold change /veh RGS16 (11720943_a_at) / RFU RGS16 (11720944_at) / Fold change /veh RGS16 (11720944_at) / RFU, VPS4B / Fold change vs veh, VPS4B / RFU, CREB1 / Fold change vs veh, CREB1 / RFU, DNAJC13 / Fold change vs veh, DNAJC13 / RFU, GNAQ / Fold change vs veh, GNAQ / RFU, CDK5R1 / Fold change vs veh, CDK5R1 / RFU, ZRANB3 / Fold change vs veh, ZRANB3 / RFU, CUL4A / Fold change vs veh, CUL4A / RFU, CCNY / Fold change vs veh, CCNY / RFU, UFL1 / Fold change vs veh, UFL1 / RFU, COG3 / Fold change vs veh, COG3 / RFU, DIAPH2 / Fold change vs veh, DIAPH2 / RFU, SKA2 / Fold change vs veh, SKA2 / RFU, AFF3 / Fold change vs veh, AFF3 / RFU, LMF1 / Fold change vs veh, LMF1 / RFU, IPO11 / Fold change vs veh, IPO11 / RFU, DFFB / Fold change vs veh, DFFB / RFU, FOXP1 / Fold change vs veh, FOXP1 / RFU, CARD8 / Fold change vs veh, CARD8 / RFU, STRN3 / Fold change vs veh, STRN3 / RFU, ADK / Fold change vs veh, ADK / RFU, RASSF2 / Fold change vs veh, RASSF2 / RFU, WIPF1 / Fold change vs veh, WIPF1 / RFU, LARP1B / Fold change vs veh, LARP1B / RFU, RASA1 / Fold change vs veh, RASA1 / RFU, RB1 / Fold change vs veh, RB1 / RFU, PPFIA1 / Fold change vs veh, PPFIA1 / RFU, MAT2A / Fold change vs veh, MAT2A / RFU, CCT5 / Fold change vs veh, CCT5 / RFU, WDR92 / Fold change vs veh, WDR92 / RFU, CUX1 / Fold change vs veh, CUX1 / RFU, TTC7A / Fold change vs veh, TTC7A / RFU, TMEM135 / Fold change vs veh, TMEM135 / RFU, DEPTOR / Fold change vs veh, DEPTOR / RFU, CPM / Fold change vs veh, CPM / RFU, DNAJB6 / Fold change vs veh, DNAJB6 / RFU, CACNA2D3 / Fold change vs veh, CACNA2D3 / RFU, DTX4 / Fold change vs veh, DTX4 / RFU, TFCP2 / Fold change vs veh, TFCP2 / RFU, GMCL1 /// GMCL1P1 / Fold change vs veh, GMCL1 /// GMCL1P1 / RFU, AEBP2 / Fold change vs veh, AEBP2 / RFU, SNHG1 /// SNORD22 /// SNORD25 /// SNORD26 /// SNORD27 /// SNORD28 /// SNORD29 /// SNORD31 / Fold change vs veh, SNHG1 /// SNORD22 /// SNORD25 /// SNORD26 /// SNORD27 /// SNORD28 /// SNORD29 /// SNORD31 / Fold change (Aza/veh), C12orf56 (ProbeSet 11735607_a_at) / Fold change (ACY-1035/veh), C12orf56 (ProbeSet 11735607_a_at) / Fold change (Aza/veh), FGFR1OP (ProbeSet 11751329_s_at) / Fold change (ACY-1035/veh), FGFR1OP (ProbeSet 11751329_s_at) / Fold change (Aza/veh), VPS36 (ProbeSet 11739960_a_at) / Fold change (ACY-1035/veh), VPS36 (ProbeSet 11739960_a_at) / RFU SYPL1 (11715823_x_at) / Fold change /veh SYPL1 (11715823_x_at) / RFU IGFBP7 (11715501_s_at) / Fold change /veh IGFBP7 (11715501_s_at) / RFU REEP3 (11722064_at) / Fold change /veh REEP3 (11722064_at) / RFU IGLL1 (11728026_x_at) / Fold change /veh IGLL1 (11728026_x_at): dose or concentration left out as unconfirmed
Details: MV-4-11 cells, 48 hours

With `Nc1ccc(-c2cccs2)cc1NC(=O)c1ccc2c(c1)cc(C1CC1)n2CCN1CCOCC1` [ACY-1035] the “Fold change /veh RGS16 (11746705_a_at)” value was 1.06.
